Read-outs that look alike come from different tables or passages of the source.
Assays:
leukemia P 388 = assay: Anti-tumor activity on mice against leukemia P 388; assay type: in vivo, CDF1 mice; details: days 1 and 5
Procedure: (§1) To test the anti-tumor activity of the compounds of the present invention, 100,000 cells/mouse of leukemia L 1210 and 1,000,000 cells/mouse of leukemia P 388 were transplanted by intraperitoneal injection to groups of CDF1 mice, respectively. One and 5 days after the transplantation, the test compound was administered by intraperitoneal injection to the mice.
(§2) The anti-tumor activity of the test compound was evaluated by means of T/C %, i.e., 100 times the mean survival period of the groups injected with the test compound divided by the means survival period of the comparison groups which were not injected with the test compound. The value of higher than 120% for L 1210 and higher than 125% for P 388 means that the test compound has a good effect.

[1] = tested on: ascites-tumor Sarcoma 180A; assay type: in vivo, ddN mice; details: for Growth Rate T/C (%): daily from one to five days
Procedure: To test the anti-tumor activity of the compounds of the present invention, cells of ascites-tumor Sarcoma 180A were transplanted by intraperitoneal injection to groups of ddN mice. From one to five days, the test compound was administered by intraperitoneal injection day after day. The ascites of the resulting mice was sampled to evaluate the anti-tumor activity of the test compound by means of the growth rate of the tumor, T/C % (groups with treatment/groups without treatment). In the table, the designations "-", "+", "++" and "+++" mean 100-66%, 65-41%, 40-11% and 10-0%, of the T/C %, respectively.

male mice (ddN strain) = assay: Acute toxicity test (intraperitoneal); assay type: in vivo; details: i.p., suspension in 0.3% CMC
Procedure: A suspension of the test substance in 0.3% CMC aqueous solution was intraperitoneally administered to the test mice in a dose amount of 0.5 ml per mouse.

leukemia L 1210 = assay: Anti-tumor activity on mice against leukemia L 1210; assay type: in vivo, CDF1 mice; details: days 1 and 5
Procedure: as §1, §2

Work on `O=C(O)C(=O)O.[NH-][C@@H]1CCCC[C@H]1[NH-].[Pt+2]` (relative stereo) [Compound No. 6, Cis-oxalato(trans-l-1,2-diaminocyclohexane)platinum (II)] yielded a T/C % (leukemia P 388; P 388, 6.25 mg/kg i.p.) of 188%, a T/C % (leukemia P 388; P 388, 25 mg/kg i.p.) of 61% and a T/C % (leukemia P 388; P 388, 50 mg/kg i.p.) of 0%. For the same molecule, the T/C % (leukemia P 388; P 388, 100 mg/kg i.p.) was 0%, the Evaluation ([1]; 3 mg/kg i.p.) was “+++ (10-0%)” and the “Growth Rate T/C (%)” value ([1]; 3 mg/kg i.p.) was 9%.

For `NC1CCCCC1N.[Cl-].[Cl-].[Pt+2]` (stereo not drawn) [Compound No. 1, Cis-dichloro(cis-1,2-diaminocyclohexane)Platinum (II)], the LD50 (male mice (ddN strain)) was 11.3 mg/kg, the T/C % (leukemia L 1210; L 1210, 6.25 mg/kg i.p.) was 198% and the T/C % (leukemia L 1210; L 1210, 12.5 mg/kg i.p.) was 211%. For the same molecule, the T/C % (leukemia L 1210; L 1210, 25 mg/kg i.p.) was 164%, the T/C % (leukemia L 1210; L 1210, 100 mg/kg i.p.) was 0% and the T/C % (leukemia L 1210; L 1210, 200 mg/kg i.p.) was 0%. The T/C % (leukemia L 1210; L 1210, 400 mg/kg i.p.) was 0%, the Evaluation ([1]; 1 mg/kg i.p.) was “+ (65-41%)” and the “Growth Rate T/C (%)” value ([1]; 1 mg/kg i.p.) was 57%. For the same molecule, the Evaluation ([1]; 3 mg/kg i.p.) was “+++ (10-0%)”, the “Growth Rate T/C (%)” value ([1]; 3 mg/kg i.p.) was 3% and the Evaluation ([1]; 10 mg/kg i.p.) was “+++ (10-0%)”. For the same molecule, the “Growth Rate T/C (%)” value ([1]; 10 mg/kg i.p.) was 0%.

`NC1CCCCC1N.[Cl][Pt][Cl]` (stereo not drawn) [Compound No. 2, Cis-dichloro(trans-d-1,2-diaminocyclohexane)platinum (II)] showed an LD50 (male mice (ddN strain)) of 22.5 mg/kg, a T/C % (leukemia L 1210; L 1210, 12.5 mg/kg i.p.) of 291% and a T/C % (leukemia L 1210; L 1210, 25 mg/kg i.p.) of 110%. It also gave a T/C % (leukemia L 1210; L 1210, 50 mg/kg i.p.) of 71%, a T/C % (leukemia L 1210; L 1210, 100 mg/kg i.p.) of 71% and a T/C % (leukemia L 1210; L 1210, 200 mg/kg i.p.) of 0%. The Evaluation ([1]; 1 mg/kg i.p.) was “++ (40-11%)”, the “Growth Rate T/C (%)” value ([1]; 1 mg/kg i.p.) was 8% and the Evaluation ([1]; 3 mg/kg i.p.) was “+++ (10-0%)”. For the same molecule, the “Growth Rate T/C (%)” value ([1]; 3 mg/kg i.p.) was 1%.

Molecule `NC1CCCCC1N.[Cl-].[Cl-].[Pt+2]` (stereo not drawn) [Compound No. 3, Cis-dichloro(trans-l-1,2-diaminocyclohexane)platinum (II)] has an LD50 (male mice (ddN strain)) of 14.1 mg/kg, a T/C % (leukemia L 1210; L 1210, 6.25 mg/kg i.p.) of 316% and a T/C % (leukemia L 1210; L 1210, 12.5 mg/kg i.p.) of 379%. For the same molecule, the T/C % (leukemia L 1210; L 1210, 25 mg/kg i.p.) was 88%, the T/C % (leukemia L 1210; L 1210, 50 mg/kg i.p.) was 71% and the T/C % (leukemia L 1210; L 1210, 100 mg/kg i.p.) was 0%. The T/C % (leukemia L 1210; L 1210, 200 mg/kg i.p.) was 0%, the Evaluation ([1]; 1 mg/kg i.p.) was “++ (40-11%)” and the “Growth Rate T/C (%)” value ([1]; 1 mg/kg i.p.) was 18%. The Evaluation ([1]; 3 mg/kg i.p.) was “+++ (10-0%)” and the “Growth Rate T/C (%)” value ([1]; 3 mg/kg i.p.) was 2%.

With `NC1CCCCC1N.O=C1[O][Pt][O]C1=O` (stereo not drawn) [Compound No. 4, Cis-oxalato(cis-1,2-diaminocyclohexane)platinum (II)] the T/C % (leukemia P 388; P 388, 25 mg/kg i.p.) was 200%, the T/C % (leukemia P 388; P 388, 50 mg/kg i.p.) was 0% and the T/C % (leukemia P 388; P 388, 100 mg/kg i.p.) was 0%. For the same molecule, the “Growth Rate T/C (%)” value ([1]; 0.3 mg/kg i.p.) was 83%, the Evaluation ([1]; 1 mg/kg i.p.) was “+++ (10-0%)” and the “Growth Rate T/C (%)” value ([1]; 1 mg/kg i.p.) was 0%. The Evaluation ([1]; 3 mg/kg i.p.) was “+++ (10-0%)”, the “Growth Rate T/C (%)” value ([1]; 3 mg/kg i.p.) was 0% and the Evaluation ([1]; 10 mg/kg i.p.) was “+++ (10-0%)”. For the same molecule, the “Growth Rate T/C (%)” value ([1]; 10 mg/kg i.p.) was 0%.

With `NC1CCCCC1N.O=C1[O][Pt][O]C1=O` (stereo not drawn) [Compound No. 5, Cis-oxalato(trans-d-1,2-diaminocyclohexane)platinum (II)] the T/C % (leukemia P 388; P 388, 10 mg/kg i.p.) was 174%, the T/C % (leukemia P 388; P 388, 20 mg/kg i.p.) was 195% and the T/C % (leukemia P 388; P 388, 40 mg/kg i.p.) was 0%. For the same molecule, the Evaluation ([1]; 3 mg/kg i.p.) was “+++ (10-0%)” and the “Growth Rate T/C (%)” value ([1]; 3 mg/kg i.p.) was 10%.

`NC1CCCCC1N.O=C([O-])CC(=O)[O-].[Pt+2]` (stereo not drawn) [Compound No. 7, Cis-malonato(cis-1,2-diaminocyclohexane)platinum (II)] was tested, and the T/C % (leukemia P 388; P 388, 12.5 mg/kg i.p.) was 126%, the T/C % (leukemia P 388; P 388, 25 mg/kg i.p.) was 142% and the T/C % (leukemia P 388; P 388, 50 mg/kg i.p.) was 155%. The Evaluation ([1]; 10 mg/kg i.p.) was “+ (65-41%)”, the “Growth Rate T/C (%)” value ([1]; 10 mg/kg i.p.) was 61% and the Evaluation ([1]; 30 mg/kg i.p.) was “+++ (10-0%)”. For the same molecule, the “Growth Rate T/C (%)” value ([1]; 30 mg/kg i.p.) was 0%, the Evaluation ([1]; 100 mg/kg i.p.) was “+++ (10-0%)” and the “Growth Rate T/C (%)” value ([1]; 100 mg/kg i.p.) was 0%.

In the case of `NC1CCCCC1N.O=C1CC(=O)[O][Pt][O]1` (stereo not drawn) [Compound No. 8, Cis-malonato(trans-d-1,2-diaminocyclohexane)platinum (II)], the T/C % (leukemia P 388; P 388, 12.5 mg/kg i.p.) is reported as 121%, the T/C % (leukemia P 388; P 388, 25 mg/kg i.p.) is reported as 138% and the T/C % (leukemia P 388; P 388, 50 mg/kg i.p.) is reported as 155%. For the same molecule, the Evaluation ([1]; 10 mg/kg i.p.) was “+ (65-41%)”, the “Growth Rate T/C (%)” value ([1]; 10 mg/kg i.p.) was 47% and the Evaluation ([1]; 30 mg/kg i.p.) was “+++ (10-0%)”. For the same molecule, the “Growth Rate T/C (%)” value ([1]; 30 mg/kg i.p.) was 1%, the Evaluation ([1]; 100 mg/kg i.p.) was “+++ (10-0%)” and the “Growth Rate T/C (%)” value ([1]; 100 mg/kg i.p.) was 0%.

For `NC1CCCCC1N.O=C([O-])CC(=O)[O-].[Pt+2]` (stereo not drawn) [Compound No. 9, Cis-malonato(trans-l-1,2-diaminocyclohexane)platinum (II)], the T/C % (leukemia P 388; P 388, 75 mg/kg i.p.) was 202%, the T/C % (leukemia P 388; P 388, 150 mg/kg i.p.) was 104% and the “Growth Rate T/C (%)” value ([1]; 3 mg/kg i.p.) was 85%. For the same molecule, the Evaluation ([1]; 10 mg/kg i.p.) was “++ (40-11%)”, the “Growth Rate T/C (%)” value ([1]; 10 mg/kg i.p.) was 17% and the Evaluation ([1]; 30 mg/kg i.p.) was “+ ++”. The “Growth Rate T/C (%)” value ([1]; 30 mg/kg i.p.) was 1%, the Evaluation ([1]; 100 mg/kg i.p.) was “+++ (10-0%)” and the “Growth Rate T/C (%)” value ([1]; 100 mg/kg i.p.) was 4%.

For `CC(C(=O)[O-])C(=O)[O-].NC1CCCCC1N.[Pt+2]` [Compound No. 10, Cis-methylmalonato(cis-1,2-diaminocyclohexane)platinum (II)], the T/C % (leukemia P 388; P 388, 20 mg/kg i.p.) was 102%, the T/C % (leukemia P 388; P 388, 40 mg/kg i.p.) was 121% and the T/C % (leukemia P 388; P 388, 80 mg/kg i.p.) was 133%.

Molecule `CC1C(=O)[O][Pt][O]C1=O.NC1CCCCC1N` [Compound No. 11, Cis-methylmalonato(trans-d-1,2-diaminocyclohexane)platinum(II)] has a T/C % (leukemia P 388; P 388, 25 mg/kg i.p.) of 121%, a T/C % (leukemia P 388; P 388, 50 mg/kg i.p.) of 138% and a T/C % (leukemia P 388; P 388, 100 mg/kg i.p.) of 154%.

Molecule `CC(C(=O)[O-])C(=O)[O-].NC1CCCCC1N.[Pt+2]` [Compound No. 12, Cis-methylmalonato(trans-l-1,2-diaminocyclohexane)platinum(II)] has a T/C % (leukemia P 388; P 388, 25 mg/kg i.p.) of 115%, a T/C % (leukemia P 388; P 388, 50 mg/kg i.p.) of 122% and a T/C % (leukemia P 388; P 388, 100 mg/kg i.p.) of 141%.

With `NC1CCCCC1N.[Cl][Pt][Cl]` (stereo not drawn) [cis-dichloro (1,2-DAC) Pt(II), reference compound] the Evaluation ([1]; 0.3 mg/kg i.p.) was “++ (40-11%)”, the “Growth Rate T/C (%)” value ([1]; 0.3 mg/kg i.p.) was 12% and the Evaluation ([1]; 1 mg/kg i.p.) was “++ (40-11%)”. The “Growth Rate T/C (%)” value ([1]; 1 mg/kg i.p.) was 19%, the Evaluation ([1]; 3 mg/kg i.p.) was “+++ (10-0%)” and the “Growth Rate T/C (%)” value ([1]; 3 mg/kg i.p.) was 3%.

With “Cis-uracil(cis-1,2-diaminocyclohexane)platinum (II) [Compound No. 13]” the T/C % (leukemia P 388; P 388, 100 mg/kg i.p.) was 163%, the T/C % (leukemia P 388; P 388, 200 mg/kg i.p.) was 71% and the T/C % (leukemia P 388; P 388, 400 mg/kg i.p.) was 0%.

“Cis-uracil(trans-d-1,2-diaminocyclohexane)platinum (II) [Compound No. 14]” was tested, and the T/C % (leukemia P 388; P 388, 50 mg/kg i.p.) was 140%, the T/C % (leukemia P 388; P 388, 100 mg/kg i.p.) was 142% and the T/C % (leukemia P 388; P 388, 200 mg/kg i.p.) was 178%.

In the case of “Cis-uracil(trans-l-1,2-diaminocyclohexane)platinum (II) [Compound No. 15]”, the T/C % (leukemia P 388; P 388, 50 mg/kg i.p.) is reported as 155%, the T/C % (leukemia P 388; P 388, 100 mg/kg i.p.) is reported as 181% and the T/C % (leukemia P 388; P 388, 200 mg/kg i.p.) is reported as 178%.
